Where “and” joins values, the source holds several entries; their conditions need not be identical. Equal values may be shown once. Where a name gives a salt, the structure may show the parent alone.
Columns and labels:
[1] = Dunning MAT LyLu tumor model, weekly body weight; assay type: in vivo; details: compared to the control group
Protocol: (§2) Fresh dosing solutions containing 10 mg/ml of each test article in 2% carboxymethylcellulose were prepared daily and used in the testing.
(§3) Three groups of animals (10/group) were dosed by gavage with either vehicle, or one of the two analogs daily for three weeks, and then three times per week until death or sacrifice. Dosing was begun seven days prior to implantation of the MAT LyLu tumor cells by tail vein injection. Approximately 0.1 ml of tumor cell suspension was injected into one of the lateral tail veins. The dose to be chosen was based on two factors: (1) efficacy and (2) morbidity associated with the analog, if any.

[2] = system: Arp-1 human myeloma cancer cells; test: Membrane Invasion Culture System (MICS) chemo-invasion assay; assay type: cell-based; details: 24 hours, + = increased invasiveness
How it was run: (§1)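 Fifty thousand cells were seeded above a 35 μm laminin/collagen IV/gelatin barrier on a 10 μm-pore filter, with serum-free RPMI plus 50% fibroblast-conditioned medium below as chemoattractant. Compound at 1, 10 or 25 μg/ml, or DMSO vehicle, was present for 24 h. Invaded cells were collected, Wright-stained and counted over 5 fields.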

[3] = system: MDA-MB-231 human breast cancer cells; test: as above; assay type: cell-based; details: 24 hours, + = increased invasiveness
How it was run: as §1

[4] = system: RPMI-8226 human myeloma cancer cells; test: as above; assay type: cell-based; details: 24 hours, + = increased invasiveness
How it was run: as §1

[5] = system: Ark human myeloma cancer cells; test: as above; assay type: cell-based; details: 24 hours, + = increased invasiveness
How it was run: as §1

[6] = system: PC-3 ML human prostate cancer cells; test: as above; assay type: cell-based; details: 24 hours, + = increased invasiveness
How it was run: as §1

[7] = system: C8161 human melanoma cells; test: as above; assay type: cell-based; details: 24 hours, + = increased invasiveness
How it was run: as §1

MAT LyLu tumor = test: Dunning MAT LyLu tumor model, survival; assay type: in vivo, Copenhagen rats; details: for Surviving Number: 10/group, dosed by gavage; for surviving number after tumor implantation (in words): compared to the control group
Protocol: as §2, §3

MMP2 (Gelatinase A) = target: T1, MMP2 (Gelatinase A) (Homo sapiens, UniProt P08253); test: MMP2 (Gelatinase A) inhibition, 14C gelatin release; assay type: biochemical; details: 37° C., 16 hours; read-out: MMP-2 inhibitory activity, IC50
T1 sequence (P08253 110-660): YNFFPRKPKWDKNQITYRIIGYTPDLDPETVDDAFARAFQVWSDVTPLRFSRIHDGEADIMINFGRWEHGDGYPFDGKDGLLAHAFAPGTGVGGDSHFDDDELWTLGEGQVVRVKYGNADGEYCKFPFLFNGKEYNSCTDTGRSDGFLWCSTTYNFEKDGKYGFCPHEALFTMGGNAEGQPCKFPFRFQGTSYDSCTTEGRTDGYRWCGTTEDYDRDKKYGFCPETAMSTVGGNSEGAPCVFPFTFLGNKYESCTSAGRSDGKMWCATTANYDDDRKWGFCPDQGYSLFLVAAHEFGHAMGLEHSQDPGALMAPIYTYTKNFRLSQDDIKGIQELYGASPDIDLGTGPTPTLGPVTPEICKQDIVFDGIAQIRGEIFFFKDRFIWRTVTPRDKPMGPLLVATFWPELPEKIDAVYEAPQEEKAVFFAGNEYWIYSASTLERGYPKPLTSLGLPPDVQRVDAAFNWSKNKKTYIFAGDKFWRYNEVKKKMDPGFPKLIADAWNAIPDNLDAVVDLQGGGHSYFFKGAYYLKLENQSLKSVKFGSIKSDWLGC
Protocol: Protocol for Measuring MMP2 (Gelatinase A) Inhibition
MMP2 activity was determined by the release of trichloracetic acid, TCA, soluble fragments from ^14C acetylated rat skin type I gelatin (Methods in Enzymology 248, 470, 1995. Biochem. J. 195, 1981)
• 100 μg ^14C labelled gelatin (type I collagen denatured 60° C. 20 min) • 50 mM Tris HCl pH 7.9 • 15 mM CaCl2, 0.02% azide • Human recombinant MMP1, 0.1–0.5 nM • ±Tetracycline (up to 1 MM) in a total volume of 250 μl.
Incubations were set at 37° C. for 16 hours. The reaction was stopped by cooling the incubations and addition of 50 μl cold 90% (w/v) trichloracetic acid with careful mixing. TCA precipitation was allowed to proceed for 15 minutes at 4° C. prior to cetrifugation at 10,000 g for 10 minutes at 4° C. 200 μl of the TCA supernatant was taken for the determination of radioactive content by scintillation counting (Packard Opti Phase Supermix scintillation fluid). Only data derived from within the linear part of the assay (10–70% lysis) were utilized. The percentage inhibition of MMP2 by each tetracycline concentration was plotted to derive the IC50 value, using linear regression analysis.

Human recombinant MMP9 = Human recombinant MMP9 (Homo sapiens, UniProt P14780); test: MMP9 (Gelatinase B) inhibition, 14C gelatin release; assay type: biochemical; details: 37° C., 16 hours; read-out: MMP-9 inhibitory activity, IC50
Sequence of Human recombinant MMP9 (P14780 94-707): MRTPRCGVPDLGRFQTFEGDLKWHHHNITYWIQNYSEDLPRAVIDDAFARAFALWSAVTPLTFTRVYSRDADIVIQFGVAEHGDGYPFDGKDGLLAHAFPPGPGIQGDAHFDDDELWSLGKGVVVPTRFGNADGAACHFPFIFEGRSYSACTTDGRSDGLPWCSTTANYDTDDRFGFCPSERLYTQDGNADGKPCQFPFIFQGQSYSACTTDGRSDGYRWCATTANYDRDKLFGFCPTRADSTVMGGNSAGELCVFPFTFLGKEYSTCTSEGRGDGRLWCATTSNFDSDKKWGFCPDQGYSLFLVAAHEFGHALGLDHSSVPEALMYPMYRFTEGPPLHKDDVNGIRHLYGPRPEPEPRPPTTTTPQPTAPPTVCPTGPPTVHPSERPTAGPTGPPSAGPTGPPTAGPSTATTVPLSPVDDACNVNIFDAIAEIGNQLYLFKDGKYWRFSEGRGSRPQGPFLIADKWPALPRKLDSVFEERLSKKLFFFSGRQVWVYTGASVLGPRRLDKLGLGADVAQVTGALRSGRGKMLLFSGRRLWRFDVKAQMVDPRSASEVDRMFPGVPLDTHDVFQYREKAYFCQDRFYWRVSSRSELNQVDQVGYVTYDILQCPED

Human recombinant MMP3 = Human recombinant MMP3 (Homo sapiens, UniProt P08254); test: MMP3 (Stromelysin 1) inhibition, 14C casein release; assay type: biochemical; details: 37° C., 16 hours; read-out: MMP-3 inhibitory activity, IC50
Sequence of Human recombinant MMP3 (P08254 100-477): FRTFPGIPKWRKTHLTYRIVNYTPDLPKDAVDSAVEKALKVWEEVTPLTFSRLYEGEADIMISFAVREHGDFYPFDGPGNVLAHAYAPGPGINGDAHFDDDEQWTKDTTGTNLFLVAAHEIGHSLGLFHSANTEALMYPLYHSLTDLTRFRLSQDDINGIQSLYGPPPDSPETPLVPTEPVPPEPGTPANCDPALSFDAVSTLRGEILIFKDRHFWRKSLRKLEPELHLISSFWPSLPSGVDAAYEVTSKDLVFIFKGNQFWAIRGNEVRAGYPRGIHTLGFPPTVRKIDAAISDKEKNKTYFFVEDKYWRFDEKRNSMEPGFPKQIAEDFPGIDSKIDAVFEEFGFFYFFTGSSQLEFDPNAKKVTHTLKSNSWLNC
Protocol: Protocol for Measuring MMP3 (Stromelysin 1) Inhibition
• 100 μg ^14C casein (7000 dpm) • 50 mM Tris HCl, pH 7.9 • 15 mM CaCl2, 0.02% azide • Human recombinant MMP3, 0.25–1.0 nM • ±tetracycline (up to 1 mM) in a total volume of 250 μl.
Incubations were at 37° C. for 16 hours. The reaction was stopped by the addition of 500 μl cold 18% TCA and standing on ice for 15 minutes. TCA precipitates were removed by centrifugation at 10,000 g for 10 minutes at 4° C. and 200 μl supernatant was taken for scintillation counting. Only data derived from within the linear part of the assay (10–60% lysis) were utilized. The percentage inhibition of MMP3 by each concentration of the candidate tetracycline was plotted to derive the IC50 value, using linear regression analysis.

Human recombinant MMP1 = target: T2, Human recombinant MMP1 (Homo sapiens, UniProt P03956); test: MMP1 (Collagenase-1) inhibition, 14C collagen release; assay type: biochemical; details: 35° C., 5 hours; read-out: MMP-1 inhibitory activity, IC50
T2 sequence (P03956 100-469): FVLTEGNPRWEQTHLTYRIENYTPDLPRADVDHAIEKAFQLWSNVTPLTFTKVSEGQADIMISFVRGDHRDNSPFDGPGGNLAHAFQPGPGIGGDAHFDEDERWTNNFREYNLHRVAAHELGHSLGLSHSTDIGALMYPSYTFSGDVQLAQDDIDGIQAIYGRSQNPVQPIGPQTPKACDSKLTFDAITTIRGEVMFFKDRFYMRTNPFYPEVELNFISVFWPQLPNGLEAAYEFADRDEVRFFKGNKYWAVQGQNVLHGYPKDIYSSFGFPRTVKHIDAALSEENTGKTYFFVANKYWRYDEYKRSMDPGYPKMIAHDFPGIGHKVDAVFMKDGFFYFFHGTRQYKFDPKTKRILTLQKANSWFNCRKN
Protocol: Protocol for Measuring MMP1 (Collagenase-1) Inhibition by Tetracycline Derivatives
MMP1 activity was determined by the release of soluble ^14C labelled collagen fragments from ^14C acetylated rat skin type I collagen (Methods in Enzymology 80 711, 1981).
• 100 μg ^14C labelled rat skin type I collagen (5–6000 dpm) • 50 mM Tris HCl pH 7.9 • 15 mM CaCl2 0.02% azide • Human recombinant MMP1 3–4 nM • ±Tetracycline (up to 1 mM) in a total volume of 300 μl.
Incubations were at 35° C. for 5 hours. Uncleaved collagen fibrils (which form within the first 10 minutes) were removed by centrifugation at 10,000 g, 4° C., 10 minutes. 200 μl supernatant were counted in Packard Opti Phase Supermix scintillation fluid using a scintillation counter. Only data derived from within the linear part of the assay (10–70% lysis of the collagen) were utilized. Based on percentage inhibition of the activity of MMP1 alone by a range of concentrations of each sample, the IC50 value for each tetracycline was calculated by linear regression analysis.

Human recombinant MMP14 = Human recombinant MMP14 (Homo sapiens, UniProt P50281); test: MMP14 (MTI-MMP) inhibition, 14C collagen release; assay type: biochemical; details: 35° C., 15 hours; read-out: MMP-14 inhibitory activity, IC50
Human recombinant MMP7 = target: T3, Human recombinant MMP7 (Homo sapiens, UniProt P09237); test: MMP7 (Matrilysin) inhibition, 14C casein release; assay type: biochemical; details: 37° C., 16 hours; read-out: MMP-7 inhibitory activity, IC50
T3 sequence (P09237 95-267): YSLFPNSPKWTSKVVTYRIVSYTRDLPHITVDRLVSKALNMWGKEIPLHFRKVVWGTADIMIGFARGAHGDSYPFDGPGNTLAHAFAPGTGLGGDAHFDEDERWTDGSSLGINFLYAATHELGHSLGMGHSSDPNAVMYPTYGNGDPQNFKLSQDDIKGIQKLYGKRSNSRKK
Protocol: MMP7 activity was determined by the release of trichloracetic acid, TCA, soluble fragments from ^14C acetylated β casein (Sigma) as described in Methods in Enzymology 248, 451 (1995).
• 100 μg ^14C casein (7000 dpm) • 50 mM Tris HCl, pH 7.9 • 15 mM CaCl2, 0.02% azide • Human recombinant MMP7, 1.5 nM • ±tetracycline (up to 1 mM) in a total volume of 250 μl.
Incubations were at 37° C. for 16 hours. The incubation was stopped by the addition of 500 μl cold 18% TCA and standing on ice for 15 minutes. TCA precipitates were removed by centrifugation at 10,000 g for 10 minutes at 4° C., and 200 μl supernatant was taken for scintillation counting. Only data derived from within the linear part of the assay (10–60% lysis) were utilized. The percentage inhibition of MMP7 by each concentration of the candidate tetracycline were plotted to derive the IC50 value.

[8] = 14 days post tumor implantation
[9] = 17 days post tumor implantation
[10] = 24 days post tumor implantation
[11] = 27 days post tumor implantation
[12] = 28 days post tumor implantation
[13] = 29 days post tumor implantation
[14] = 30 days post tumor implantation
[15] = 34 days post tumor implantation
[16] = 42 days post tumor implantation

CC1c2ccc(N)c(O)c2C(=O)C2=C(O)C3(O)C(=O)C(C(N)=O)=C(O)C(N(C)C)C3C(O)C21 (centres unmarked) [Compound 2, 9-amino-6-deoxy-5-hydroxytetracycline H2SO4]
body weight changes [1]: indistinguishable body weight changes
percent inhibition, ARP-1 ([2]; 1 ug/mL): 10%
percent inhibition, ARP-1 ([2]; 10 ug/mL): 7%
percent inhibition, ARP-1 ([2]; 25 ug/mL): 6%
percent inhibition, MDA-MB-231 (Breast) ([3]; 1 ug/mL): 20%
percent inhibition, MDA-MB-231 (Breast) ([3]; 10 ug/mL): 15%
percent inhibition, MDA-MB-231 (Breast) ([3]; 25 ug/mL): 30^B percent
percent inhibition, RPMI-8226 (Multiple Myeloma) ([4]; 25 ug/mL, listed as 5): 36% and 42^B percent
percent inhibition, ARK ([5]; 1 ug/mL): 20^B percent
percent inhibition, ARK ([5]; 10 ug/mL): 9^B percent
percent inhibition, ARK ([5]; 25 ug/mL): 10%
percent inhibition, PC-3 ML (Prostrate) ([6]; 1 ug/mL): 20%
percent inhibition, PC-3 ML (Prostrate) ([6]; 10 ug/mL): 8%
percent inhibition, PC-3 ML (Prostrate) ([6]; 25 ug/mL): 15%
percent inhibition, C8161 (Melanoma) ([7]; 1 ug/mL): 20^B percent
percent inhibition, C8161 (Melanoma) ([7]; 10 ug/mL): 25^B percent
percent inhibition, C8161 (Melanoma) ([7]; 25 ug/mL): 27^B percent
Surviving Number (MAT LyLu tumor; [8]): 10
Surviving Number (MAT LyLu tumor; [9]): 10
Surviving Number (MAT LyLu tumor; [10]): 10
Surviving Number (MAT LyLu tumor; [11]): 10
Surviving Number (MAT LyLu tumor; [12]): 9
Surviving Number (MAT LyLu tumor; [13]): 9
Surviving Number (MAT LyLu tumor; [14]): 7
Surviving Number (MAT LyLu tumor; [15]): 7
Surviving Number (MAT LyLu tumor; [16]): 7
surviving number after tumor implantation (in words) (MAT LyLu tumor): marked increase in surviving number

CN(C)c1cc([N+]#N)c(O)c2c1CC1CC3C(N(C)C)C(O)=C(C(N)=O)C(=O)C3(O)C(O)=C1C2=O (centres unmarked) [Compound 9, 7-dimethylamino-6-demethyl-6-deoxytetracycline-9-diazonium H2SO4 HCL]
IC50 (MMP2 (Gelatinase A)): 337 µM
IC50 (Human recombinant MMP9): 28 µM
IC50 (Human recombinant MMP3): 154 µM
IC50 (Human recombinant MMP1): 372 µM
percent inhibition, ARP-1 ([2]; 1 ug/mL): +14%
percent inhibition, ARP-1 ([2]; 10 ug/mL): +21^B percent
percent inhibition, ARP-1 ([2]; 25 ug/mL): 7%
percent inhibition, RPMI-8226 (Multiple Myeloma) ([4]; 1 ug/mL): 21^B percent
percent inhibition, RPMI-8226 (Multiple Myeloma) ([4]; 10 ug/mL): 24^B percent
percent inhibition, RPMI-8226 (Multiple Myeloma) ([4]; 25 ug/mL): 28^B percent
percent inhibition, ARK ([5]; 1 ug/mL): 17^B percent
percent inhibition, ARK ([5]; 10 ug/mL): 24^B percent
percent inhibition, ARK ([5]; 25 ug/mL): 20^B percent
IC50 (Human recombinant MMP14): 29 µM
IC50 (Human recombinant MMP7): 507 µM

CC1c2ccc([N+](=O)[O-])c(O)c2C(=O)C2=C(O)C3(O)C(=O)C(C(N)=O)=C(O)C(N(C)C)C3C(O)C21 (centres unmarked) [Compound 1, 9-nitro-6-deoxy-5-hydroxytetracycline H2SO4]
IC50 (MMP2 (Gelatinase A)): > 700 µM
IC50 (Human recombinant MMP9): 43 µM
IC50 (Human recombinant MMP3): 258 µM
IC50 (Human recombinant MMP1): 267 µM
body weight changes [1]: indistinguishable body weight changes
percent inhibition, ARP-1 ([2]; 1 ug/mL): +9%
percent inhibition, ARP-1 ([2]; 10 ug/mL): +13%
percent inhibition, ARP-1 ([2]; 25 ug/mL): 1%
percent inhibition, MDA-MB-231 (Breast) ([3]; 10 ug/mL): 20^B percent and 25^B percent
percent inhibition, RPMI-8226 (Multiple Myeloma) ([4]; 1 ug/mL): 20% and 21^B percent
percent inhibition, RPMI-8226 (Multiple Myeloma) ([4]; 25 ug/mL): 15% and 29^B percent
percent inhibition, ARK ([5]; 1 ug/mL): 9% and 13%
percent inhibition, PC-3 ML (Prostrate) ([6]; 10 ug/mL): 47^B percent and 24^B percent
percent inhibition, C8161 (Melanoma) ([7]; 25 ug/mL): 35^B percent and 56^B percent
IC50 (Human recombinant MMP14): 86 µM
Surviving Number (MAT LyLu tumor; [8]): 8
Surviving Number (MAT LyLu tumor; [9]): 8
Surviving Number (MAT LyLu tumor; [10]): 8
Surviving Number (MAT LyLu tumor; [11]): 8
Surviving Number (MAT LyLu tumor; [12]): 8
Surviving Number (MAT LyLu tumor; [13]): 6
Surviving Number (MAT LyLu tumor; [14]): 4
Surviving Number (MAT LyLu tumor; [15]): 4
Surviving Number (MAT LyLu tumor; [16]): 4
surviving number after tumor implantation (in words) (MAT LyLu tumor): marked increase in surviving number
IC50 (Human recombinant MMP7): 815 µM
